Experimental findings from US12077551B2, “Zinc complex, preparation thereof and use thereof for trerapy of human and animal diseases” (OBSCHESTVO S OGRANICHENNOI OTVETSTVENNOSTIYU “Z …, priority 2018, dated 2024) are described below.

A short description of series [1]: Solubility and dissociation of the product (NMR solvents, D2O spectrum). It is filed as physicochemical. From the text:
The prepared resulting product is insoluble in solvents which are used to record NMR spectra.
It mainly contains the residual signal of the non-deuterated solvent, and low-intensity signals corresponding to the original gamma-L-glutamylhistamine.

Series [2] deals with recombinant intracellular human glutaminyl cyclase (Homo sapiens, UniProt Q9NXS2). The experiment in a line: Enzymatic activity of human glutaminyl cyclase in vitro (fluorescent substrate Gln-bNA). Type of series: biochemical. The following applies: 25° C., 50 μM Gln-bNA, pH 8.0, enzyme incubated with compound for 5 minutes; read-out: IC50, inhibition of glutaminyl cyclase activity. As to the method: In the studies of the effect of Compound 1 (which is the subject of the present invention) on the enzymatic activity of glutaminyl cyclase in vitro, the direct inhibitory effect of Compound 1 on recombinant intracellular human glutaminyl cyclase was discovered.
The activity of glutaminyl cyclase at various Compound 1 concentrations was studied at 25° C. using the fluorescent substrate L-glutaminyl 2-naphthylamide (Gln-bNA) [Anal Biochem. 2002 Apr. 1; 303 (1): 49-56]. The reaction mixture with a volume of 100 μl contained 50 μM of a fluorogenic substrate; ˜0.2 units of human pyroglutaminyl aminopeptidase (1 unit is defined as the amount that hydrolyzes 1 micromole of pGlu-bNA per minute), and an aliquot of recombinant intracellular human glutaminyl cyclase (gQC) in […] trisaminomethane HCl and 5% glycerol, pH 8.0. The reaction was initiated by adding an aliquot of glutaminyl cyclase incubated with Compound 1 for 5 minutes to the reaction mixture.
Further progression of the reaction was monitored spectrophotometrically (excitation and emission wavelengths were 320 and 410 nm). Enzymatic activity was determined by the amount of released 2-naphthylamide (bNA), calculated based on the calibration curve. IC50 values were calculated using non-linear regression of the “inhibitor concentration”-“enzyme activity” curve.

For series [3], the system named is mouse atopic dermatitis model. Briefly: Mouse atopic dermatitis model (DNCB), histological analysis of the affected ear. It is filed as in vivo, male mice of the balb/c strain. As to the method:
Experimental technique. The study of Compound 1 activity in the model of atopic dermatitis was carried out using the standard technique [Evidence-based Complementary and Alternative Medicine. 2012. Article ID 545497, 9 pages). For the experimental group, we selected animals of average appearance without signs of deviations, with the weight of the animal being no more than ±20% from the average value within the sex. On days 0 and 12 of the experiment, male mice of the balb/c strain were treated with 100 μl of a 2% solution of 1-chloro-2,4-dinitrobenzene (DNCB) in ethanol applied to the previously shaved areas on the back to sensitize the body. On the 17th day, 20 μl of 2% alcohol solution of DNCB was applied to the “test” right ear of the animals twice with an interval of 1 hour. Compound 1 cream with an active substance content of 0.01 wt % was administered topically, to the “test” right ear, twice: 1 and 13 hours after the last application of DNCB to the ear. The following were used as a comparison/reference/control medications: Methylprednisolone aceponate ([…] ointment for external use), pyrithione zinc (0.2% cream for external use), pimecrolimus (1% cream for external use) and cream for external use containing gamma-L-glutamylhistamine 0.01%. On the 18th day, the animals were euthanized and the histological analysis of the affected ear was performed. Histological sections with a thickness of 5 μm were stained with hematoxylin-eosin. […] The data obtained were verified using the Grubbs test, also known as the maximum normalized residual test a test used to detect outliers in a data set. The values identified as “outliers” in this test were not used for further analysis. Descriptive statistics were used for all data: the mean (M) and standard error of the mean (m) were calculated. The normal distribution of the values obtained in the experiment was verified using the Kolmogorov-Smirnov test. In the case of a normal distribution, Student's t-test was used to assess intergroup differences. […] Differences were determined at a 5% confidence level.

Chain of recombinant intracellular human glutaminyl cyclase (Q9NXS2 whole entry): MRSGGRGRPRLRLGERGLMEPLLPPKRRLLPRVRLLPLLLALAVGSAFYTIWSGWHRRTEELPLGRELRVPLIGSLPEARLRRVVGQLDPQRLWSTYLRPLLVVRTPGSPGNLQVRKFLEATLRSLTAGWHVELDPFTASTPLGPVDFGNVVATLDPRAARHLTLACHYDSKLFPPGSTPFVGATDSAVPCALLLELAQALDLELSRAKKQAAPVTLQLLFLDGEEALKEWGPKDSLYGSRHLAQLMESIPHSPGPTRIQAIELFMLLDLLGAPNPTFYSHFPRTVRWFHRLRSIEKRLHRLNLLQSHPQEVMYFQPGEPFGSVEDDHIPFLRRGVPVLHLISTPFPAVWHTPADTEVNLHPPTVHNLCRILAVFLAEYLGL

The IC50 is the point on the concentration scale where inhibition reaches its midpoint. Take “zinc complex of gamma-L-glutamylhistamine [Compound 1]”: the “solubility in solvents used to record NMR spectra” value in series [1] (product of Example 2) is reported as “insoluble”. Besides, the “dissociation in aqueous suspensions” value in series [1] (product of Example 2, D2O NMR spectrum) is “insignificant dissociation”. Further, the IC50 in series [2] stood at 26 µM. Besides, the “action in comparison with the gamma-L-glutamylhistamine ligand” value in series [3] (0.01 wt % cream vs cream containing gamma-L-glutamylhistamine 0.01%) is given as “significant improvement”. Besides, the “effectiveness in comparison with the reference drugs methylprednisolone aceponate, zinc pyrithione and pimecrolimus” value in series [3] (0.01 wt % cream vs reference ointment/creams) is “superior performance”. Moreover, the “influx of inflammatory cells (monocytes, dendritic cells, eosinophils and neutrophils) into the epidermis and dermis of the skin” value in series [3] (0.01 wt % cream, topical to right ear, 1 and 13 hours after last DNCB application, histology on day 18) was “to the level of intact animals”.
